Reference: ChEMBL document CHEMBL1128862, “Tricyclic cephems as inhibitors of human leukocyte elastase. thieno[3,4-c]cepham sulfones and pyrrolo[3,4-c]cepham sulfones” (Bioorg Med Chem Lett, 1995)

Legend:
[1] = Hydrolytic stability at 37 degrees Celsius in 50 mM phosphate buffer (20 % v/v MeCN as solubilising vehicle) at pH 7.4; assay type: physicochemical
[2] = target: T1, Neutrophil elastase (Homo sapiens) (UniProt P08246); assay: Inhibitory activity against human leukocyte elastase (HLE) expressed as second order inhibition rate constant
T1 sequence (whole entry): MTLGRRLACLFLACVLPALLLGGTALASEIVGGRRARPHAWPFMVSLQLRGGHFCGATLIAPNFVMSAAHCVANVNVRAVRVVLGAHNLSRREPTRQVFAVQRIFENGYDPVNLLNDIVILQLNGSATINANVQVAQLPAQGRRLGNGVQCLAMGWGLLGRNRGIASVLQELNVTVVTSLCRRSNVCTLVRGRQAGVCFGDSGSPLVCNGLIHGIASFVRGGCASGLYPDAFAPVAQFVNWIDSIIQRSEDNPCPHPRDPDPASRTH

[3] = Hydrolytic stability at 37 degrees Centigrade in 50 mM phosphate buffer (2 % v/v MeCN as solubilising vehicle) at pH 7.4; assay type: physicochemical

half-life [1] [days]	k on [2] [M⁻¹ s⁻¹]	half-life [3] [days]	Compound
> 125	11000	–	CO[C@H]1C(=O)N2c3c(cn(-c4ccc([N+](=O)[O-])cc4)c3-c3ccccc3)CS(=O)(=O)[C@H]12
–	1300	21.2	CO[C@H]1C(=O)N2c3c(c[nH]c3C(C)(C)C)CS(=O)(=O)[C@H]12
–	270	1.42	CO[C@H]1C(=O)N2c3c(csc3-c3ccccc3)CS(=O)(=O)[C@H]12
–	80	9.17	CO[C@H]1C(=O)N2c3c(csc3C(C)(C)C)CS(=O)(=O)[C@H]12
–	2500	23.8	CO[C@H]1C(=O)N2c3c(c[nH]c3-c3ccccc3)CS(=O)(=O)[C@H]12
–	2100	33.3	CO[C@H]1C(=O)N2c3c(cn(C(=O)C(C)(C)C)c3-c3ccccc3)CS(=O)(=O)[C@H]12
